Assay results taken from patent US20160324770A1, “INTRATHECAL ADMINISTRATION, PREFERABLY INTRAVENTRICULAR, OF MTOR INHIBITORS FOR THE THERAPY OF SOME NEURODEGENERATIVE, NEUROINFLAMMATORY AND NEURO-ONCOLOGIC DISEASES” (priority 2012, published 2016).
Read-outs that look alike come from different tables or passages of the source.

Columns and labels:
[1] = mouse, in vivo, 25 mg/kg
Text: Intraventricular infusion: Under general anaesthesia obtained with Ketamine/Xylazine, Alzet osmotic pumps (http://www.alzet.com/products/guide_to_use/pump_selection.ht ml) were implanted subcutaneously on the back; a catheter leading from the pump reached the cranial vault, where it was connected to a connector (Brain Kit 3, Alzet) stereotaxically implanted in the cranium until reaching the lateral ventricle. These pumps are capable of infusing their content at a constant speed for 1-4 weeks.
We then decided to look for the maximum tolerable dose by intraventricular administration of everolimus at concentrations 10 times higher than those shown in Table 1: A=25 mg/Kg, B=12.5 mg/Kg, C=[…].
Therefore, that dose was ruled out and the mice were sacrificed. […] For the subsequent assessment of therapeutic effectiveness in the different animal models, dose B (12.5 mg/Kg) was selected.

[2] = Blood and brain concentrations and metabolites (LC-MS) after intraventricular (intracerebral) administration by osmotic pump; type: in vivo; conditions: mice that had received intrathecal treatment
[3] = Blood and brain concentrations (LC-MS) in mice treated intraperitoneally for a week with graduated doses; type: in vivo, CD1 mice; conditions: for concentration at 1 week: CD1, mouse
Protocol: A quantitative analysis of everolimus in blood and tissue samples was performed with the isotopic dilution method using the LC-MS technique. The chromatographic system was the following: Agilent 1290 Infinity HPLC equipped with a binary pump and HiP Auto Sampler model G4226A. The injection volume was 2 μL, the analytical column used was a Phenomenex Kinetics PFP UHPLC column (Phenomenex, Milan, Italy) […], 1.7 μm, 100 Å, temperature controlled at 55° C. A gradient elution was performed using as solvent A: water with 5 mM ammonium formiate, solvent B: methanol with 0.1% formic acid. The elution profile was the following: solvent A 30%/solvent B 70% for 3 minutes, solvent A 1%/solvent B 99% from 3 to 6 minutes, at a flow velocity of 0.25 mL/min. This setup enabled an elution time of 2.5 minutes. Every injection was preceded by a cycle of washing the injector system with methanol.
Mass spectrometry was conducted using a Q-TOF MS detector model G6540A (Agilent, Germany) equipped with a Dual AJS ESI (electrospray ionization interface) system. The instrument parameters were the following: sheath gas flow: […], sheath gas temperature: 300° C., gas flow: 6 L/min, gas temperature: 300° C., nebulizer pressure: 35 psi, ion spray voltage: 5500 V.
Both everolimus and the isotopic internal standard were detected as ammonium adducts in the positive ion mode.
Everolimus was extracted from whole blood in 1 mL of a methanol solution containing 10% ammonium acetate in order to enable precipitation of most of the serum protein.
The internal standard used was isotopic 4d-2C^13-everolimus added to the extraction solution at a concentration of 200 ng/mL.
The blood samples were freeze-dried and subsequently extracted. The extraction process was carried out in a sonication bath for approx. 10 minutes to ensure complete haemolysis and release of the drug from the cell material.
The samples were centrifuged (10 minutes, 4000 rpm, 10° C.) and the supernatant was then separated from the pellet.
The solutions thus obtained were then purified by means of HybridSPE®-Phospholipid solid-phase extraction cartridges with a total volume of 1 ml (Sigma Aldrich, Milan) to eliminate the excess lipid material potentially present. The process was preliminarily validated both for everolimus and for the internal standard in solution and in matrices, providing a yield >98% w/v.
The process of extraction from brain samples, divided into right and left hemispheres, was similar to the one for whole blood. The tissue samples were weighed and subsequently freeze-dried. After freeze-drying the samples were finely chopped to facilitate subsequent extraction. 1 mL of the methanol solution was then added to 1% v/v of ammonium formiate with 200 ng/mL of internal standard. The samples were then subjected to 10 minutes of sonication and vortexed to ensure complete extraction of the drug. Then followed centrifugation (10 minutes, 4000 rpm, 10° C.) and the supernatant was separated from the pellet. As previously described, the solutions were purified by means of HybridSPE®-Phospholipid solid-phase extraction cartridges with a total volume of 1 ml (Sigma Aldrich, Milan) to eliminate the excess lipid material. The samples were then immediately submitted to LC-MS analysis.

[4] = test system: p70-S6 kinase phosphorylation (measure of mTOR activity); experiment: Western blot of p70S6K phosphorylation in brain, liver and spleen (verification of mTOR inhibition); type: in vivo, mice
Protocol: The frozen mouse tissues were homogenized in T-PER solution (Pierce) containing a cocktail of protease inhibitors (Sigma-Aldrich) and a cocktail of phosphatase inhibitors (Sigma-Aldrich). The homogenized samples were sonicated 3 times for 15 sec (amplitude of 10 microns) at 4° C. using an MSE soniprep 150 sonicator (Sanyo), and subsequently centrifuged at 4° C. for 30 minutes at 16000 g. The supernatant was recovered and the proteins quantified by means of a Bradford assay using BSA as the standard.
For the Western blot analysis, the proteins were separated by SDS-PAGE under reducing conditions according to the method of Laemmli. Subsequently, the proteins were transferred onto a PVDF membrane (Biorad), which was incubated with the following primary antibodies: anti-phospho-p70S6K (T^389), anti-phospho-p70S6K (S^371), anti-p70S6K (Cell Signaling) and anti-actin (Sigma-Aldrich). After being washed with TBS-Tween (50 mM Tris, pH 7.5, NaCl […] and 0.1% Tween 20), the membrane was incubated with one of the following secondary antibodies: anti-rabbit IgG conjugated to HRP (GE Healthcare) and anti-mouse IgG conjugated to HRP (GE Healthcare). The membrane was developed by means of ECL prime (GE Healthcare).
Verification of mTOR inhibition. We analyzed the actual inhibition of mTOR by WB. mTOR is a kinase with multiple substrates, one of which is p70-S6 kinase. Phosphorylation of the latter is unanimously considered a measure of mTOR activity.

**Q.** With `CO[C@H]1C[C@@H]2CC[C@@H](C)[C@@](O)(O2)C(=O)C(=O)N2CCCC[C@H]2C(=O)O[C@H]([C@H](C)C[C@@H]2CC[C@@H](OCCO)[C@H](OC)C2)CC(=O)[C@H](C)/C=C(\C)[C@@H](O)[C@@H](OC)C(=O)[C@H](C)C[C@H](C)/C=C/C=C/C=C/1C` [everolimus] as the compound, how does the Tolerability observations [1] read?
**A.** reduction in spontaneous motility and a very slight weight reduction

**Q.** What about the “Blood concentration (detectable only in traces)” value [2] of the same compound?
**A.** < 1 mg/kg

**Q.** And the concentration at 1 week ([3]; brain, intraperitoneal, 0.6125 mg/Kg, heading: Brain conc 1, one week, lowest of 3 dosages (C=0.6125 mg/Kg))?
**A.** 46 ng/g

**Q.** What about the “Level in the blood” value ([3]; all 3 dosages of the one-week study) of the same compound?
**A.** did not reach measurable levels in the blood

**Q.** And the concentration at 1 week ([3]; female, brain, left hemisphere (sx), ip, females, 0.6125 mg/kg i.p. for a week, normalized to weight of a hemisphere, read-out: Brain concentration, hemisphere sx (converted))?
**A.** 48 ng/g

**Q.** What about the concentration at 1 week ([3]; female, brain, left hemisphere (sx), ip, females, 1.25 mg/kg i.p. for a week, normalized to weight of a hemisphere, read-out: Brain concentration, hemisphere sx (converted)) of the same compound?
**A.** 80 ng/g

**Q.** What about the concentration at 1 week ([3]; female, brain, left hemisphere (sx), ip, females, 2.5 mg/kg i.p. for a week, normalized to weight of a hemisphere, read-out: Brain concentration, hemisphere sx (converted)) of the same compound?
**A.** 152 ng/g

**Q.** And the concentration at 1 week ([3]; female, brain, right hemisphere (dx), ip, females, 0.6125 mg/kg i.p. for a week, normalized to weight of a hemisphere, read-out: Brain concentration, hemisphere dx (converted))?
**A.** 44 ng/g

**Q.** What about the concentration at 1 week ([3]; female, brain, right hemisphere (dx), ip, females, 1.25 mg/kg i.p. for a week, normalized to weight of a hemisphere, read-out: Brain concentration, hemisphere dx (converted)) of the same compound?
**A.** 72 ng/g

**Q.** And the concentration at 1 week ([3]; female, brain, right hemisphere (dx), ip, females, 2.5 mg/kg i.p. for a week, normalized to weight of a hemisphere, read-out: Brain concentration, hemisphere dx (converted))?
**A.** 132 ng/g

**Q.** And the concentration at 1 week ([3]; female, whole blood, ip, females, 0.6125 mg/kg intraperitoneally for a week, n = 2, read-out: Blood concentration)?
**A.** 15 ± 3 ng/mL

**Q.** What about the concentration at 1 week ([3]; female, whole blood, ip, females, 1.25 mg/kg intraperitoneally for a week, n = 2, read-out: Blood concentration) of the same compound?
**A.** 25 ± 5 ng/mL

**Q.** And the concentration at 1 week ([3]; female, whole blood, ip, females, 2.5 mg/kg intraperitoneally for a week, n = 2, read-out: Blood concentration)?
**A.** 46 ± 4 ng/mL

**Q.** And the concentration at 1 week ([3]; male, brain, left hemisphere (sx), ip, males, 0.6125 mg/kg i.p. for a week, normalized to weight of a hemisphere, read-out: Brain concentration, hemisphere sx (converted))?
**A.** 36 ng/g

**Q.** What about the concentration at 1 week ([3]; male, brain, left hemisphere (sx), ip, males, 1.25 mg/kg i.p. for a week, normalized to weight of a hemisphere, read-out: Brain concentration, hemisphere sx (converted)) of the same compound?
**A.** 100 ng/g

**Q.** And the concentration at 1 week ([3]; male, brain, left hemisphere (sx), ip, males, 2.5 mg/kg i.p. for a week, normalized to weight of a hemisphere, read-out: Brain concentration, hemisphere sx (converted))?
**A.** 176 ng/g

**Q.** What about the concentration at 1 week ([3]; male, brain, right hemisphere (dx), ip, males, 0.6125 mg/kg i.p. for a week, normalized to weight of a hemisphere, read-out: Brain concentration, hemisphere dx (converted)) of the same compound?
**A.** 56 ng/g

**Q.** What about the concentration at 1 week ([3]; male, brain, right hemisphere (dx), ip, males, 1.25 mg/kg i.p. for a week, normalized to weight of a hemisphere, read-out: Brain concentration, hemisphere dx (converted)) of the same compound?
**A.** 148 ng/g

**Q.** And the concentration at 1 week ([3]; male, brain, right hemisphere (dx), ip, males, 2.5 mg/kg i.p. for a week, normalized to weight of a hemisphere, read-out: Brain concentration, hemisphere dx (converted))?
**A.** 208 ng/g

**Q.** What about the concentration at 1 week ([3]; male, whole blood, ip, males, 0.6125 mg/kg intraperitoneally for a week, n = 2, read-out: Blood concentration) of the same compound?
**A.** 16 ± 4 ng/mL

**Q.** And the concentration at 1 week ([3]; male, whole blood, ip, males, 1.25 mg/kg intraperitoneally for a week, n = 2, read-out: Blood concentration)?
**A.** 42 ± 4 ng/mL

**Q.** What about the concentration at 1 week ([3]; male, whole blood, ip, males, 2.5 mg/kg intraperitoneally for a week, n = 2, read-out: Blood concentration) of the same compound?
**A.** 59 ± 3 ng/mL

**Q.** What about the “Blood concentration (LC-MS)” value ([3]; mice treated with intraperitoneal administration) of the same compound?
**A.** in the therapeutic range

**Q.** What about the “Inhibition of mTOR as shown by WB” value ([4]; intrathecal treatment) of the same compound?
**A.** local, but not systemic, inhibition of mTOR

**Q.** And the “Phosphorylation state of p70-S6 kinase in the brain vs controls” value ([4]; selected dose (12.5 mg/Kg) intraventricular, brain, FIG. 1)?
**A.** less phosphorylated form than in the controls

**Q.** And the “Phosphorylation state of p70-S6 kinase in the spleen and liver” value ([4]; selected dose (12.5 mg/Kg) intraventricular, spleen and liver, FIG. 1)?
**A.** normally phosphorylated
